In PubChem BioAssay AID1996:
≈ marks a conversion by molar mass, not a printed value.

Conditions: buffer; pH 7.4; 200.0 µM

SMILES	solubility kinetic [µg/mL]
O=[N+]([O-])c1cccc(C(=NCc2ccccc2)NO)c1	> 40.7
C=CCn1c(O)c(C(C)=NCC2CCCO2)c(=O)[nH]c1=O (stereo not drawn)	> 44
CCOC(=O)C(O)(c1ccc(NC(=O)NC)cc1)C(F)(F)F (stereo not drawn)	> 48
CCOC(=O)C1=C(Nc2ccc(Cl)cc2)OCC1=O	> 42.3
COc1ccc(OCCn2ccnc2C)cc1.O=C(O)C(=O)O	41.7
CCc1cc(=O)oc2cc(OCC(=O)N3CCC(C(N)=O)CC3)ccc12	> 53.8
Cc1cc(C)cc(NC(=O)Nc2ccc3c(c2)CCC3)c1	< 0.3
Cc1cc(C)c2c(N)c(C(=O)c3ccc(Br)cc3)oc2n1	1.2 (≈ 3.48 µM)
Cn1c(C(=O)N2CCOCC2)cc2c(=O)n3ccccc3nc21	> 46.8
Cc1cccc(-c2nc(C#N)c(NCC3CCCO3)o2)c1 (stereo not drawn)	2.3 (≈ 8.12 µM)
COc1cccc(Nc2ncnc3sccc23)c1	> 38.6
Cc1cccc(C)c1NC(=O)CN1CCN(C(=O)c2ccc(OCc3cn4ccccc4n3)cc2)CC1	> 74.6
CCCCn1c(=O)c(C(=O)Nc2ccccc2C)c(O)c2ccccc21	< 0.4
Cc1cccc(NCc2ccc(Br)cc2)n1	12 (≈ 43.3 µM)
O=c1[nH]c(=O)n(CC2CCCO2)c(O)c1/C=C1\C=Nc2ccccc21 (stereo not drawn)	> 50.9
Cc1cccc2nc3ccccc3cc12	6.8 (≈ 35.2 µM)
Cc1ccc(C2=NOC(=O)/C2=C\c2ccc(C)o2)cc1	36.3 (≈ 136 µM)
CCN(CC)CCN(C(=O)/C=C/c1cccs1)c1nc2ccc(Cl)cc2s1.Cl	< 0.3
Cc1ccc2nc(C3CCCCC3)[nH]c2c1	> 32.1
CC(C)(CNS(=O)(=O)c1cccs1)N1CCOCC1	> 45.7
Cc1ccccc1-c1nc(C#N)c(N2CCC(C)CC2)o1	< 0.2
Cc1ccc(C(=O)Nc2ccc3[nH]c(=O)[nH]c3c2)c(C)c1	3.9 (≈ 13.9 µM)
OCCC1CN(Cc2cccn2-c2ncccn2)CCN1C1CCCC1 (stereo not drawn)	51.5 (≈ 145 µM)
COc1ccccc1N1CCN(c2nccc(C)n2)CC1	40.3 (≈ 142 µM)

SMILES	solubility kinetic [µg/mL]
COc1ccc(NC(=O)Cc2ccc(C)c(C)c2)cc1S(=O)(=O)N1CCCCC1	12.8 (≈ 30.7 µM)
COc1ccccc1N1C(=O)c2ccccc2NC1c1ccc(O)cc1 (stereo not drawn)	12.8 (≈ 37 µM)
Cc1cccc(OCc2ccc(C(=O)Nc3cc(C)on3)o2)c1	< 0.3
CCc1ccccc1NC(=O)NCc1ccccn1	> 38.3
Cc1cc(C)nc(SCC(=O)c2ccc(Cl)cc2)n1	33.5 (≈ 114 µM)
CCOC(=O)C(NCCOC)(NC(C)=O)C(F)(F)F (stereo not drawn)	> 42.9
Cc1cc(C(=O)N2CCN(c3ccc([N+](=O)[O-])cc3)CC2)co1	> 47.3
O=C(COC(=O)Cc1ccsc1)Nc1cccc(F)c1	> 44
COc1ccc(S(=O)(=O)Nc2c(C)nn(C)c2C)cc1Br	> 56.1
CCCC(=O)Nc1ccc2oc(-c3cncc(Br)c3)nc2c1	0.6 (≈ 1.67 µM)
Cc1ccc(S(=O)(=O)NC2=NCN(C(C)C)CN2)cc1	> 44.5
COc1ccc(C2(c3ccc(OC)cc3)NC(=O)N(CC(=O)Nc3cc(C)on3)C2=O)cc1	27.4 (≈ 60.8 µM)
COc1ccc(N2C(=O)Cc3c2nc(N)c(C#N)c3N)cc1	13 (≈ 44 µM)
Cc1cccc(C)c1OCC1CNC(=O)O1 (stereo not drawn)	24.8 (≈ 112 µM)
CCOC(=O)c1ccc(NC(=O)c2nc(SC)ncc2Cl)cc1	1 (≈ 2.84 µM)
Cc1cc(S(=O)(=O)N2CCN(c3ccccn3)CC2)ccc1F	3.6 (≈ 10.7 µM)
Cc1noc(C)c1C(=O)NCC1COc2ccccc2O1 (stereo not drawn)	> 43.2
Cc1cc(NC(=O)CSc2nnc(C)n2-c2ccccc2C)no1	> 51.5
CC(C)(C)c1ccc(C(CC(=O)O)NC(=O)CSc2ccccc2)cc1 (stereo not drawn)	> 55.7
CCCCn1c2c(c(=N)c3ccccc31)CCC2.I	> 55.2
O=C(CCn1c(=S)oc2ccccc21)Nc1cccc(O)c1	8.6 (≈ 27.4 µM)
O=C(O)/C=C/c1ccc(Oc2ncccn2)cc1	> 36.3
N#Cc1c(-c2ccccc2)cc(-c2ccccc2)[nH]c1=O	0.6 (≈ 2.2 µM)
CCN(CC)CCn1c(-c2ccc(C)cc2)nc(=S)c2c1CC(C)(C)OC2	> 57.8

SMILES	solubility kinetic [µg/mL]
O=C(NCC(c1ccco1)N1CCCC1)c1cc(S(=O)(=O)N2CCCCC2)ccc1Cl (stereo not drawn)	> 69.9
Cc1cc2nc(NCCCO)n(CC(=O)c3cc(C(C)(C)C)c(O)c(C(C)(C)C)c3)c2cc1C	0.5 (≈ 1.07 µM)
COc1ccccc1C(=O)N(Cc1ccccc1)c1ccc(C)cc1	24.1 (≈ 72.7 µM)
O=C(NNC(=O)c1ccccc1-n1cccc1)c1cncc(Br)c1	> 57.8
CN(C)CCCNC(=O)c1ccccc1Oc1ccccc1	> 44.8
CCOc1ccccc1OCC(=O)Nc1cc(C)on1	> 41.4
COC(=O)c1cn(Cc2ccc(C(F)(F)F)cc2)cc(F)c1=O	> 49.4
COC(=O)c1cc(NC(=O)COC(=O)C2COc3ccccc3O2)cc(C(=O)OC)c1 (stereo not drawn)	54.7 (≈ 127 µM)
Cc1cc(/C=C2\SC(=O)N(C)C2=O)c(C)n1-c1ccc(O)cc1	5.6 (≈ 17.1 µM)
O=C(COC(=O)c1ccc([N+](=O)[O-])o1)NCCCc1ccccc1	> 49.8
COc1ccc(Nc2ncnc3c2c(C)c(C)n3CCO)cc1	> 46.9
COc1cc(/C=C/[N+](=O)[O-])ccc1OC(=O)c1cc2ccccc2oc1=O	5.7 (≈ 15.5 µM)
Cc1cccc(-n2c(=O)c3c(C)c(C)sc3n(CC(N)=O)c2=O)c1	> 51.5
O=C(c1cc(-c2ccccc2)on1)N1CCC2(CC1)OCCO2	> 47.2
O=CC1=C(N2CCOCC2)/C(=C\c2ccccc2)CC1	32.2 (≈ 120 µM)
COc1ccc2[nH]cc(CCNC(=O)CCC3CCCCC3)c2c1	29.9 (≈ 91 µM)
Cc1ccc(NC(=O)CCSCCc2ccccn2)cc1	> 45.1
CN1CCN(C(=S)c2ccc(-c3cc(Cl)ccc3Cl)o2)CC1	3.3 (≈ 9.29 µM)
O=S(=O)(c1ccc(=S)[nH]c1)N1CCCC1	> 36.6
CC1(C)CC(=O)C2=C(C1)Nc1ccccc1[S@]2=O	> 39.2
CN(C)c1nc(NCc2ccccc2)nc(SCC(N)=O)n1	43.7 (≈ 137 µM)
O=c1[nH]c(SCc2cccc(F)c2)nc2ccccc12	< 0.3
COC(=O)c1cc(OC)c(OC)cc1NC(=S)N1CCOCC1	39.7 (≈ 117 µM)
O=C1NC(=Nc2ccccc2)S/C1=C\c1cccs1	1 (≈ 3.49 µM)

SMILES	solubility kinetic [µg/mL]
COc1ccccc1CNC(=O)COC(=O)c1ccc(C(=O)c2ccccc2)cc1	8.2 (≈ 20.3 µM)
O=C(NCCCN1CCCC1=O)c1ccc(NS(=O)(=O)c2ccccc2)cc1	58.8 (≈ 146 µM)
Cc1ccccc1C1NC(=S)NC2=C1C(=O)CC(C)(C)C2 (stereo not drawn)	39.3 (≈ 131 µM)
O=C1CC(c2ccccc2F)c2c(c3ccccc3[nH]c2=O)O1 (stereo not drawn)	11.4 (≈ 36.9 µM)
CC(=O)c1ccc(N2CCN(CC3CCCCC3)CC2)cc1	22 (≈ 73.2 µM)
NC(N)=O	> 9
Cc1cc(C)nc(NCc2ccc(Cl)cc2)n1.Cl	5.4
O=[N+]([O-])c1cc(C(F)(F)F)cc([N+](=O)[O-])c1N1CCCNCC1	37.9 (≈ 113 µM)
COc1ccc(-c2nc(C(=O)O)cs2)cc1OC	> 39.8
Cc1cc(Nc2ccc(C)c(C)c2)c2ccccc2n1	> 39.4
CC(C)c1ccc(NC(=O)COC(=O)CC2CCCC2)cc1	7.8 (≈ 25.7 µM)
O=C(CSc1nc2ncccc2[nH]1)c1ccc2c(c1)OCO2	0.7 (≈ 2.23 µM)
COc1ccc(NC(=O)CN(C)C(=O)c2ccccc2OC)cc1	> 49.3
CC(C)(CO)Nc1nc(Cl)nc(NC2CCCCC2)n1	36.5 (≈ 122 µM)
O=S1(=O)CC(O)C(N(CCO)C(=S)Nc2ccccc2)C1 (stereo not drawn)	46.2 (≈ 140 µM)
CC(=O)Nc1ccc(Oc2cncc(Cl)c2)nc1	> 39.6
C/C(=N\NC(=O)c1cccc([N+](=O)[O-])c1)c1ccncc1	> 42.6
O=C(Nc1ccc(Br)cc1)C1CC(c2c(F)cccc2Cl)=NO1 (stereo not drawn)	6.7 (≈ 16.8 µM)
CCN(c1ccccc1)S(=O)(=O)c1ccc(N2CCN(c3ccc(OC)cc3)CC2)nc1	1.2 (≈ 2.65 µM)
C[C@H](NS(=O)(=O)c1ccccc1F)C(=O)OCC(=O)Nc1ccc2c(c1)OCCO2	> 65.8
N#C/C(=C\c1cccs1)C(=O)c1ccccc1	26.3 (≈ 110 µM)
Clc1ccc(COC(Cn2ccnc2)c2ccc(Cl)cc2Cl)c(Cl)c1.O=[N+]([O-])O (stereo not drawn)	26.3
O=C(COC(=O)c1cc(=O)[nH]c2ccccc12)NCCc1ccccc1	21.1 (≈ 60.2 µM)
O=C(NCCc1ccccc1)c1cnc2n(c1=O)CCS2	45 (≈ 149 µM)

SMILES	solubility kinetic [µg/mL]
Cc1nn(C)c(C)c1NC(=O)COc1ccc(Cl)cc1	> 44.1
O=C(Cc1nc(-c2cnccn2)no1)NNC(=O)Nc1ccccc1	> 50.9
Cc1nc(-c2cc(-c3nc(-c4ccc(C(C)(C)C)cc4)no3)no2)cs1	< 0.2
COC(=O)c1ccc(COC(=O)CSCC(=O)Nc2ccc(C)cc2C)cc1	16 (≈ 39.9 µM)
CNCC(=O)O	5.6 (≈ 62.9 µM)
Fc1cccc(/C=C2\CCCC3=C2NC(=S)NC3c2cccc(F)c2)c1 (stereo not drawn)	7 (≈ 19 µM)
COc1ccc(NC2=CC(=O)CC(C)(C)C2)cc1	> 36.8
Cc1ccc(S(=O)(=O)N2CCN(C3CC(=O)N(c4ccc(F)cc4)C3=O)CC2)cc1C (stereo not drawn)	52.5 (≈ 118 µM)
NC1=NC(=O)/C(=C\c2ccco2)S1	> 29.1
Cc1ccc2[nH]c3c(c2c1)CCN1C(=O)OC(C)(C)C31C (stereo not drawn)	10.4 (≈ 36.6 µM)
CCN(C(=S)NCc1ccccc1)c1cccc2ccccc12	2.7 (≈ 8.43 µM)
Cc1cccc(C(=O)NCCCn2ccnc2)c1C	37.6 (≈ 146 µM)
CC(=O)c1ccc(NC(=O)COC(=O)c2c[nH]c3ccccc23)cc1	1.8 (≈ 5.35 µM)
COc1ccc(N2CCN(CC(=O)Nc3nc(C)cs3)CC2)cc1	49.6 (≈ 143 µM)
Cc1ccc(C(=O)NC(=S)Nc2ccc(CN3CCOCC3)cc2)cc1	2.7 (≈ 7.31 µM)
Cc1nc2c(C#N)cnn2c2c1CCN2CC1CCCO1 (stereo not drawn)	> 42.5
Cc1cccc(NC(=O)/C(C#N)=C/c2ccc(F)cc2)n1	1.5 (≈ 5.33 µM)
COc1cc2sc(C)nc2cc1C	4.8 (≈ 24.8 µM)
Cc1c(N)c(C)c([N+](=O)[O-])c(C)c1[N+](=O)[O-]	6.9 (≈ 30.6 µM)
N=c1c2c3c(sc2ncn1N)CCCC3	> 33
Cc1nnc2c(N3CCN(CCO)CC3)nc3ccccc3n12	> 46.9
COc1ccccc1C1C(C(C)=O)=C(O)C(=O)N1c1ccc(O)cc1 (stereo not drawn)	> 50.9
